Results reported in article PMC9879440, “Heterozygous deletion of Gpr55 does not affect a hyperthermia-induced seizure, spontaneous seizures or survival in the Scn1a^+/^- mouse model of Dravet syndrome” (PLOS ONE, 2023).
“And” between values parts separate entries of the source, which are not always exact repeats. Equal entries are not always repeated. Where two headings read alike, the source gives them in different places.

Tests used:
[1] = Pharmacokinetic analysis in mouse plasma and brain after a single i.p. injection; type: in vivo
Description: A pharmacokinetic study was conducted for CID2921524 (MolPort; Riga, LVA) to determine the target experimental time point for the hyperthermia-induced seizure protocol. Male and female wildtype mice (P21-28) received a single intraperitoneal (i.p.) injection of 10 mg/kg CID2921524 in ethanol-Tween 80-saline (1:1:18) with an injection volume of 10 mL/kg. At selected time points, mice were anaesthetized with isoflurane and whole blood was collected via cardiac puncture. Plasma was isolated by centrifugation, whole brain was also collected and samples were stored at -80°C until assayed.
Plasma and brain samples were prepared for analysis of CID2921524 concentrations as previously described. Samples were assayed by LC-MS/MS using a Shimadzu Nexera ultra-HPLD coupled to a Shimadzu 8030 triple quadrupole mass spectrometer (Shimadzu Corp.; Kyoto, JPN) operated in positive electrospray ionization mode with multiple reaction monitoring with 376.3 > 121.1 and 376.2 > 77.0 mass transition pairs. Quantification was achieved by comparing experimental samples to standards prepared with known amounts of drug.
(§1) Normality of each dataset was assessed using the Shapiro-Wilk test. Concentrations of CID2921524 in plasma and brain at each time point were averaged and pharmacokinetic parameters were calculated by noncompartmental analysis as previously described. Seizure threshold temperatures were compared using Mantel-Cox logrank test. Spontaneous seizure data were analysed using two-way ANOVA (seizure frequency and seizure severity), Fisher’s exact test (proportion of mice seizure-free) or Mantel-Cox logrank test (survival). RT-ddPCR data were analysed using two-way ANOVA. All results p < 0.05 were considered statistically significant.

F1.Scn1a+/- mice = assay: Hyperthermia-induced seizures in F1.Scn1a+/- mouse model of Dravet syndrome; type: in vivo; design: key to Threshold temperature of individual mice for GTCS induced by hyperthermia: core body temperature in °C at first clonic convulsion
Description: Hyperthermia-induced seizure experiments were conducted on male and female F1.Scn1a^+/- and F1.Scn1a^+/-;Gpr55^+/- mice at P14-16 as previously described. Briefly, a RET-3 rectal temperature probe was inserted and mice acclimated for 5 min before mouse core body temperature was elevated 0.5°C every 2 min until the onset of first clonic convulsion with loss of posture or until 42.5°C was reached. For hyperthermia-induced seizure experiments with CID2921524, mice received a single i.p. injection of vehicle or CID2921524 at an injection volume of 10 mL/kg following the 5 min acclimation period.
as §1

GPR55 = system: GPR55; design: method as in PubChem AID 2013; details: image-based HTS; ref PubChem AID 2013; read-out: IC50 value as GPR55 antagonist; cited from earlier work
[2] = design: method as in PMID 28973916; details: cited from earlier work
[3] = both sexes, brain, intraperitoneal, wildtype mice P21-28, 10 mg/kg i.p., n = 4, read-out: Brain concentration, average
[4] = both sexes, plasma, intraperitoneal, wildtype mice P21-28, 10 mg/kg i.p., n = 4, read-out: Plasma concentration, average

brain penetrance ([1]; 10 mg/kg i.p.)	total concentration achieved in the brain ([1]; 10 mg/kg i.p., free-fraction unknown)	Kp ([1]; both sexes, brain and plasma, ip, 10 mg/kg i.p., read-out: brain-plasma ratio (total exposure by AUC values))	concentration at 15 min [1, 3]	concentration at 30 min [1, 3]	concentration at 60 min [1, 3]	concentration at 90 min [1, 3]	concentration at 120 min [1, 3]	concentration at 15 min [1, 4]	concentration at 30 min [1, 4]	concentration at 45 min ([1]; both sexes, plasma, intraperitoneal, wildtype mice P21-28, 10 mg/kg i.p., 45 min, n = 4)	concentration at 60 min [1, 4]	concentration at 90 min [1, 4]	concentration at 120 min [1, 4]	absorption into plasma and brain ([1]; i.p. administration)	half-lives in plasma and brain ([1]; i.p. administration)	Compound	Threshold temperature of individual mice for GTCS induced by hyperthermia (F1.Scn1a+/- mice; F1.Scn1a+/- mice P14-16, male and female, 10 mg/kg i.p. acute, one value per mouse, n = 12, core body temperature (°C), 10 mg/kg, in °C)	effect on a hyperthermia-induced seizure (GTCS temperature threshold) (F1.Scn1a+/- mice; F1.Scn1a+/- mice, 10 mg/kg i.p. vs vehicle, Mantel-Cox logrank)	IC50 (GPR55)	brain penetrance [2]
brain penetrant	~ 5 μM	1.4	1820 ng/g	1530 ng/g	1210 ng/g	1310 ng/g	1550 ng/g	1.96 µg/mL	1.42 µg/mL	1.4 µg/mL	1.37 µg/mL	1.02 µg/mL	1.09 µg/mL	rapidly absorbed	relatively long half-lives	COc1ccc(CNCCC(c2ccccc2)c2ccc3c(c2)OCO3)cc1 (centres unmarked) [CID2921524]	41.2 and 40.3 and 40.2 and 40.8 and 41.5 and 40.7 and 38.9 and 39.9 and 41 and 40.6 and 39.6	no effect	0.965 µM	–
–	–	–	–	–	–	–	–	–	–	–	–	–	–	–	–	CCOc1ccc(N(CC)C(=O)c2nn(-c3ccc(OC)cc3)c(=O)c3c2c2ccccc2n3C)cc1 [CID16020064]	–	–	–	not brain penetrant
